Reference: ChEMBL document CHEMBL4837199, “Design and evaluation of novel piperidine HIV-1 protease inhibitors with potency against DRV-resistant variants” (Eur J Med Chem, 2021)

Assays:
[1] = target: Human immunodeficiency virus type 1 protease (Human immunodeficiency virus 1, UniProt Q72874); experiment: Inhibition of wild type HIV1 protease using Arg-Glu (EDANS)-Ser-Gln-Asn-Tyr-Pro-Ile-Val-Gln-Lys(DABCYL)-Arg as substrate preincubated for 20 to 30 mins followed by substrate addition and measured for 10 mins by FRET assay
[2] = test system: Human immunodeficiency virus 1; experiment: Antiviral activity against HIV1; type: functional, organism-based
[3] = Cytotoxicity against HEK293T cells assessed as reduction in cell viability incubated for 24 hrs by CCK8 assay; type: cell-based, HEK-293T; details: human
[4] = Selectivity index, ratio of CC50 for cytotoxicity against HEK293T cells to IC50 of antiviral activity against HIV1; type: toxicity, cell-based; details: human, read-out: Ratio CC50/IC50
[5] = test system: Human immunodeficiency virus 1; experiment: (§1) Antiviral activity against HIV1 Env-deficient VSV-G pseudotyped virus infected in human SUP-T1 cells infected with supernatant of compound treated virus-producing 293T cells assessed as inhibition of late stage viral production at 10 uM treated for 48 hrs with virus-producing 293T cells followed by SUP-T1 cells infection for 48 hrs by single-round infection luciferase assay relative to control; type: functional; details: Human immunodeficiency virus 1, SUP-T1, time 96 hrs
[6] = test system: Human immunodeficiency virus 1; experiment: Antiviral activity against HIV1 (NL4-3) Env-deficient VSV-G pseudotyped virus infected in human SUP-T1 cells assessed as inhibition of early stage viral production at 10 uM measured after 48 hrs by luciferase assay relative to control; type: functional; details: Human immunodeficiency virus 1, NL4-3, SUP-T1
[7] = test system: Human immunodeficiency virus 1; experiment: Antiviral activity against HIV1 NL4-3 infected in human MT4 cells assessed as reduction in viral replication by measuring reduction in p24 Gag production by chemiluminescent-EIA; type: functional, organism-based; details: Human immunodeficiency virus 1, NL4-3, MT4
[8] = test system: Human immunodeficiency virus 1; experiment: Antiviral activity against DRV resistant HIV1 infected in human MT4 cells assessed as reduction in viral replication by measuring reduction in p24 Gag production by chemiluminescent-EIA; type: functional, organism-based; details: Human immunodeficiency virus 1, MT4
[9] = test system: Human immunodeficiency virus 1; experiment: Antiviral activity against HIV1 subtype C isolate 11928; type: functional, organism-based
[10] = test system: Human immunodeficiency virus 1; experiment: Antiviral activity against HIV1 subtype C isolate 11929; type: functional, organism-based; details: Human immunodeficiency virus 1, subtype C isolate 11929
[11] = test system: Human immunodeficiency virus 1; experiment: Antiviral activity against HIV1 subtype C isolate 11941; type: functional, organism-based
[12] = test system: Human immunodeficiency virus 1; experiment: Antiviral activity against HIV1 subtype C isolate-plndie; type: functional, organism-based; details: Human immunodeficiency virus 1, subtype C isolate-plndie
[13] = Resistance index, ratio of IC50 for DRV resistant HIV1 infected in human MT4 cells to IC50 for HIV1 NL4-3 infected in human MT4 cells; type: functional
[14] = target: Human immunodeficiency virus type 1 protease (Human immunodeficiency virus 1) (UniProt Q72874); experiment: Potency index, ratio of DRV Ki to test compound Ki for inhibition of wild type HIV1 protease using Arg-Glu (EDANS)-Ser-Gln-Asn-Tyr-Pro-Ile-Val-Gln-Lys(DABCYL)-Arg as substrate preincubated for 20 to 30 mins followed by substrate addition and measured for 10 mins by FRET assay; details: time 30-40 min
[15] = test system: Human immunodeficiency virus 1; experiment: as §1, with “100 nM” for “10 uM”; type: functional; details: Human immunodeficiency virus 1, SUP-T1, time 96 hrs

| Structure (SMILES) | Ki [1] [nM] | IC50 [2] [nM] | CC50 at 24 h [3] [nM] | selectivity ratio [4] | inhibition at 10 µM [5] [%] | further results |
| --- | --- | --- | --- | --- | --- | --- |
| CC(C)CN(C[C@@H](O)[C@H](Cc1ccccc1)NC(=O)OC[C@H]1CCCNC1)S(=O)(=O)c1ccc(C(F)(F)F)cc1 | 2.61 | 11.7 | > 100000 | > 8580 | – | – |
| CC(C)CN(C[C@@H](O)[C@H](Cc1ccccc1)NC(=O)[C@H]1CCCNC1)S(=O)(=O)c1ccc(C(F)(F)F)cc1 | 43.9 | 196 | – | – | – | – |
| CC(C)CN(C[C@@H](O)[C@H](Cc1ccccc1)NC(=O)OC[C@@H]1CCCNC1)S(=O)(=O)c1ccc(C(F)(F)F)cc1 | 1.73 | 7.71 | > 100000 | > 13000 | – | – |
| CC(C)CN(C[C@@H](O)[C@H](Cc1ccccc1)NC(=O)[C@H]1CCCNC1)S(=O)(=O)c1ccc(N)cc1 | 40.5 | 181 | – | – | – | – |
| CC(C)CN(C[C@@H](O)[C@H](Cc1ccccc1)NC(=O)OC[C@@H]1CCCNC1)S(=O)(=O)c1ccc(N)cc1 | 0.28 | 1.27 | > 100000 | > 78700 | 71 | – |
| COc1ccc(S(=O)(=O)N(CC(C)C)C[C@@H](O)[C@H](Cc2ccccc2)NC(=O)[C@@H]2CCCNC2)cc1 | 0.029 | 0.13 | > 100000 | > 769000 | 99 | inhibition at 10 µM [6]: 3%; EC50 [7]: 500 nM; EC50 [8]: 900 nM; EC50 [9]: 49400 nM; EC50 [10]: 14800 nM; EC50 [11]: 11800 nM; EC50 [12]: 26300 nM; Ratio IC50 [13]: 1.8; Ratio Ki [14]: 6 |
| CC(C)CN(C[C@@H](O)[C@H](Cc1ccccc1)NC(=O)[C@@H]1CCCNC1)S(=O)(=O)c1ccc(N)cc1 | 0.27 | 1.21 | > 100000 | > 82600 | 81 | – |
| COc1ccc(S(=O)(=O)N(CC(C)C)C[C@@H](O)[C@H](Cc2ccccc2)NC(=O)OC[C@H]2CCCNC2)cc1 | 0.3 | 1.35 | > 100000 | > 74100 | – | – |
| COc1ccc(S(=O)(=O)N(CC(C)C)C[C@@H](O)[C@H](Cc2ccccc2)NC(=O)[C@H]2CCCNC2)cc1 | 9.99 | 44.6 | – | – | 93 | – |
| COc1ccc(S(=O)(=O)N(CC(C)C)C[C@@H](O)[C@H](Cc2ccccc2)NC(=O)[C@@H]2CCCN(C)C2)cc1 | 0.04 | 0.18 | > 100000 | > 556000 | 98 | inhibition at 10 µM [6]: 5% |
| CC(C)CN(C[C@@H](O)[C@H](Cc1ccccc1)NC(=O)C1CCNCC1)S(=O)(=O)c1ccc(N)cc1 | 5.52 | 24.6 | – | – | – | – |
| CC(C)CN(C[C@@H](O)[C@H](Cc1ccccc1)NC(=O)[C@@H]1CCCN(C)C1)S(=O)(=O)c1ccc(C(F)(F)F)cc1 | 0.19 | 0.84 | > 100000 | > 119000 | 88 | – |
| CC(C)CN(C[C@@H](O)[C@H](Cc1ccccc1)NC(=O)O[C@H]1CO[C@H]2OCC[C@H]21)S(=O)(=O)c1ccc(N)cc1 | – | – | > 100000 | – | – | inhibition at 0.1 µM [15]: 100%; EC50 [7]: 3.9 nM; EC50 [8]: 240 nM; EC50 [9]: 2010 nM; EC50 [10]: 3630 nM; EC50 [11]: 910 nM; EC50 [12]: 1260 nM |
| CC(C)CN(C[C@@H](O)[C@H](Cc1ccccc1)NC(=O)[C@@H]1CCCNC1)S(=O)(=O)c1ccc(C(F)(F)F)cc1 | 0.1 | 0.45 | > 100000 | > 222000 | – | – |
| CC(C)CN(C[C@@H](O)[C@H](Cc1ccccc1)NC(=O)[C@@H]1CCCCN1)S(=O)(=O)c1ccc(C(F)(F)F)cc1 | 4.61 | 20.6 | – | – | – | – |
| CC(C)CN(C[C@@H](O)[C@H](Cc1ccccc1)NC(=O)[C@@H]1CCCCN1)S(=O)(=O)c1ccc(N)cc1 | 2.03 | 9.04 | > 100000 | > 11100 | – | – |
| CC(C)CN(C[C@@H](O)[C@H](Cc1ccccc1)NC(=O)[C@@H]1CCCN(C)C1)S(=O)(=O)c1ccc(N)cc1 | 0.3 | 1.35 | > 100000 | > 74100 | 83 | – |
| CC(C)CN(C[C@@H](O)[C@H](Cc1ccccc1)NC(=O)C1CCNCC1)S(=O)(=O)c1ccc(C(F)(F)F)cc1 | 5.93 | 26.5 | – | – | – | – |
| CC(C)CN(C[C@@H](O)[C@H](Cc1ccccc1)NC(=O)OC[C@H]1CCCNC1)S(=O)(=O)c1ccc(N)cc1 | 1.01 | 4.53 | > 100000 | > 22100 | – | – |
| COc1ccc(S(=O)(=O)N(CC(C)C)C[C@@H](O)[C@H](Cc2ccccc2)NC(=O)OC[C@@H]2CCCNC2)cc1 | 0.1 | 0.43 | > 100000 | > 233000 | 94 | – |
| COc1ccc(S(=O)(=O)N(CC(C)C)C[C@@H](O)[C@H](Cc2ccccc2)NC(=O)C2CCNCC2)cc1 | 0.55 | 2.45 | > 100000 | > 40800 | – | – |
| COc1ccc(S(=O)(=O)N(CC(C)C)C[C@@H](O)[C@H](Cc2ccccc2)NC(=O)[C@@H]2CCCCN2)cc1 | 0.33 | 1.46 | > 100000 | > 68500 | 79 | – |
